Positions of bridges follow the written chain, without caps; N, C: chain ends. Non-standard residues stand in square brackets, D forms with d.
Assays:
[1] = system: anti-beta1-ECII antibody-secreting cells (ASC); assay: ELISPOT-assay with B-cells from bone marrow or spleen of prophylactically treated rats; assay type: in vivo, rat; conditions: prophylactically treated versus untreated immunized rats, n=3-4 (FIG. 13)
Experimental: Cys/Ser, horizontally hatched columns). For the assays, ELIspot plates were coated overnight with the specific antigen (GST/beta1-ECII-FP) in 0.05 mol/1 Tris buffer, pH 9.4.; then the plates were washed 3 times and blocked with BSA for 3 hours at 37° C. Subsequently, the plates were incubated overnight at 37° C. with B-cells from either spleen or bone marrow (cultured in RPMI 1640/X-VIVO-15 medium supplemented with 10% fetal calf serum (FCS)) with 1×10^6 to 1×10^3 cells per well. After 12 hours the B-cells were discarded and the plates with the B-cell secreted IgG bound were washed several times (PBS/0.5° A) Tween) before the addition of alkaline phos-phatase conjugated secondary anti-rat IgG (0.3 μg/ml) to detect bound rat IgG. Then the plates were incubated for another 3 hours at 37° C., washed several times with PBS/0.5% Tween, and developed using LMP/BICP 5:1 (1 ml per well; “LMP” means low melting agarose, and “BICP” means 5-bromo-4-chloro-3-indolyl phosphate p-toluidine salt, a blue-colored dye) allowing for a quantification of the blue spots obtained, with each spot representing an antigen-specific IgG secreting spleen or bone-marrow cell.
This finding was confirmed by ELIspot analysis of bone marrow and spleen cell preparations of selected cyclopeptide-treated versus untreated immunized rats (n=3).

anti-β1-ECII antibodies = assay: ELISA-competition assay: peptide preincubated with sera/IgG of immunized antibody-positive rats, linear 25AA Cys/Cys-peptide as antigen; assay type: binding, rat; set-up: blocking capacity (% of blocked versus non-blocked ELISA-reactivity): concentration or dose not given beside the values; conditions: for blocking capacity (% of blocked versus non-blocked ELISA-reactivity): IgG from n=78 immunized antibody-positive rats, preincubation 12 h, mutants with D-Glu ring closure (FIG. 7); for blocking capacity (% of blocked versus non-blocked ELISA-reactivity) / blocking efficiency (% of blocked versus non-blocked ELISA reactivity) / blocking capacity (% of blocked versus non-blocked ELISA reactivity): ±SEM; for blocking efficiency (% of blocked versus non-blocked ELISA reactivity): type1 sera (93%, n=64 of 69), FIG. 9 upper panel; for blocking capacity (% of blocked versus non-blocked ELISA reactivity): type 2 sera (7%, n=5 of 69), FIG. 9 lower panel; for ability to significantly block antibody-binding to the β1-ECII-antigen: IgG-fractions from 12 rats, 18AA mutants with D-Glu ring closure (FIG. 4); for fraction of rat sera blocked by the peptide: n=82 sera, D-Glu ring closure (FIG. 8), Cys/Ser = blocked by it alone, Ser/Cys = sera blocked by both mutants
Experimental: FIG. 9 is a diagram composed of two major-(upper and lower) panels resuming the blocking effect of both 25AA- and 18AA-cyclopeptide mutants having a Gln closure site, as well as 18AA cyclopeptide mutants having a D-Glu closure site after preincubation (12 h, 4° C., rotating incubation) with sera isolated from 69 different immunized antibody-positive rats in an ELISA-competition assay using the 3 Cys-containing linear 25AA Cys/Cys-peptide as an antigen. The upper panel depicts rat sera preferentially reacting with the Cys/Ser mutated cyclopeptides (type1 reaction, n=64), separated in cyc25AA(Gln)-peptides (left) and cyc18AA(Gln and D-Glu)-peptides (right). The lower panel depicts the rat sera reacting with both the Cys/Ser and the Ser/Cys mutated cyclopeptides (type2 reaction, n=5), again separated in the results obtained with cyc25AA(Gln)-peptides (left) and cyc18AA(Gln and D-Glu)-peptides (right).
FIG. 11 is a diagram resuming the dose-dependent (x-axis, abscissa: fold molar excess of specific peptides) blocking capacity of various linear and cyclic beta1-ECII-peptides given in % of the unblocked antibody-titer (y-axis, ordinate), including 25AA Cys/Cys linear peptides (black squares), 25AA Cys/Ser cyclopeptide mutants (white squares), 18AA Cys/Cys cyclo-peptides (black diamonds), 18AA Cys/Ser cyclopeptide mutants (white diamonds), and 18AA Cys/Ser linear peptide mutants (vertically hatched diamonds) in an ELISA competition assay performed with sera from n=6 randomly chosen immunized antibody-positive rats.
FIGS. 27A and B depict the in vitro blocking (=neutralization) capacity of various cysteine-containing cyclopeptide variants of the second extracellular loop (ECII) of the human beta1-adrenergic receptor, determined by testing n=6 individual sera (27A) of immunized beta1-ECII-antibody-positive rats after over-night incubation with the indicated cyclopeptides (12-14 h, 4° C.) by ELISA. Columns in 27A represent the receptor-antibody blocking efficiency of the indicated cyclopeptides in % of the antibody-(ELISA-)signals obtained with unblocked antibody-positive rat sera. Columns in 27B represent the mean blocking efficiency for each cyclopeptide, error bars indicate ±SEM.
The blocking capacity of β1-ECII-18AA cyclopeptide mutants (Cys13-Ser14 or Ser13-Cys14 mutation having an additional D-Glu-Gln exchange, e.g. at the ring closure site) was compared with the 3 Cys-containing 25AA or 18AA Cys/Cys cyclopeptides after preincubation (12 h, 4° C., rotating incubation over-night) of different numbers of sera from immunized antibody-positive rats in an ELISA-competition assay using the 3 Cys-containing linear 25AA Cys/Cys-peptide as an antigen. FIGS. 4, 5, and 7-10 show the results from measurements performed with sera of n=12 up to n=82 immunized antibody-positive rats using different cyclopeptides of the present invention.

[2] = system: beta1-receptor antibodies; assay: in vivo prevention study: five prophylactic peptide applications, serum antibody-titers by ELISA; set-up: species or system rat; conditions: 1.0 mg/kg body weight i.v., 4-weekly, prevention protocol (FIG. 12)
Experimental: FIG. 12 is a diagram resuming the in vivo blocking capacity of in total five (prophylatic) applications of various linear and cyclic beta1-ECII-peptides, started 3 months after the first immunization (and two subsequent beta1-ECII/GST-antigen-boosts, corresponding to a prevention protocol). Serum-titers of the beta1-receptor antibodies were determined before and 18-20 h after each peptide injection (abscissa, time in months) and are given in % of the corresponding antibody-titers of immunized untreated rats (y-axis, ordinate). The injected peptides were: 25AA Cys/Cys linear peptide (black squares), […] (white squares), 18AA Cys/Cys cyclopeptide (black diamond), 18AA Cys/Ser cyclopeptide mutant (white diamonds), and the 18AA Cys/Ser linear peptide mutant (vertically hatched diamonds). […] Black circles indicate antibody-titers of untreated regularly (every 4 weeks) immunized animals serving as reference, set at 100%.
The in-vivo blocking effects of both 25AA and 18AA Cys/Ser mutant cyclopeptides (with a Gln closure site), the 18AA Ser/Cys mutant cyclopeptide, and a mutated linear 18AA Cys/Ser peptide were analyzed after intravenous (i.v.) injection of 1.0 mg/kg body weight (Bw) of each construct into freshly immunized antibody-positive rats (i.e., use of cyclo-peptides in a kind of “prevention” study), with a first cyclopeptide-application 3 months after the initial immunization (and two subsequent boost at months 2 and 3). In total, five prophylactic applications of the various constructs were given at 4-weekly intervals, always two weeks after the monthly continued antigen boost. Sera were drawn 18-20 hours after i.v. injection and assayed for reactivity by ELISA using the 3 Cys-containing linear 25AA Cys/Cys-peptide as an antigen (FIG. 12).

[3] = system: antibody-induced cellular cAMP-production of HEK 293-β1 cells (β1-receptor-mediated signalling); assay: functional cAMP-assay by fluorescence resonance energy transfer (FRET); assay type: cell-based, human; conditions: anti-β1-ECII IgG of a representative rat, preincubation 12 h, 4° C. (FIG. 6)
Experimental: FIG. 6 is a diagram depicting the blocking capacity of β1-ECII-18AA cyclopeptide mutants having a D-Glu ring closure on β1-receptor-mediated signalling (functional cAMP-assay) using an approach by fluorescence resonance energy transfer (FRET). The effect of the preincubation (12 h, 4° C., rotating incubator) of anti-β1-ECII IgG antibodies of a representative rat (serum) (FIG. 4, rat number 4) with β1-ECII-18AA-cyclopeptide mutants (Cys/Ser mutation, dark blue (3); Ser/Cys mutation, light blue (4)) was compared with the effect of a 3 Cys-containing 25AA Cys/Cys cyclopeptide (red (2)) or the result obtained with anti-β1-ECII IgG antibodies in the absence of blocking peptides (black (1)). The y-axis represents the normalized YFP/CFP-ratio of the registered FRET emission signals, the x-axis corresponds to the registration time given in seconds (s).
The blocking capacity of β1-ECII 25AA or 18AA cyclopeptide mutants (having a D-Glu/Gln at the ring closure site or not) on β1-receptor-mediated signalling (functional cAMP-assay) was assayed using an approach by fluorescence resonance energy transfer (FRET) (FIG. 6).
The effect of the pre-incubation (12 h, 4° C., rotating incubator) of anti-β1-ECII IgG antibodies of a representative rat with β1-ECII-18AA cyclopeptide mutants (Cys/Ser or Ser/Cys mutations, respectively) was compared with the inhibitory effect of a 3 Cys-containing 25AA Cys/Cys cyclopeptide or with the effect of anti-β1-ECII IgG antibodies not incubated with blocking peptides. The normalized YFP/CFP-ratio of the registered FRET emission signals served to quantify the effect of the cyclopeptide mutants of the present invention in terms of blockade (in percent) of antibody-induced cellular cAMP-production of transiently Epac1-transfected stably β1-AR expressing human embryonic kidney cells (HEK 293-β1 cells). The x-axis in FIG. 6 corresponds to the registration time given in seconds (s).

Row | Substance | number of specific anti-beta1-ECII antibody-secreting cells (ASC) in spleen and bone marrow [1] | blocking capacity (% of blocked versus non-blocked ELISA-reactivity) (anti-β1-ECII antibodies; 4° C.) [%] | blocking-efficiency versus unblocked sera (anti-β1-ECII antibodies; n=6 sera, incubation 12-14 h, 4° C., mean ±SEM (FIG. 27)) [%] | blocking efficiency (% of blocked versus non-blocked ELISA reactivity) (anti-β1-ECII antibodies) [%] | blocking capacity (% of blocked versus non-blocked ELISA reactivity) (anti-β1-ECII antibodies) [%] | antibody-titer decrease after 5 injections, compared with untreated immunized animals [2] [%] | inhibition of functional antibody-effects (blocking intracellular cAMP-increases) [3] | blocking effect compared with the 3 Cys-containing β1-ECII-18AA Cys/Cys cyclopeptide (anti-β1-ECII antibodies; IgG-fractions from 12 rats (FIG. 4)) | ability to significantly block antibody-binding to the β1-ECII-antigen (anti-β1-ECII antibodies) | blocking of receptor antibodies versus Ser/Cys counterpart or linear 25AA Cys/Cys peptide (anti-β1-ECII antibodies; dose-titration, two to eight-fold molar excess, one representative serum (FIG. 5)) | fraction of rat sera blocked by the peptide (anti-β1-ECII antibodies; listed as ECII-18AA Cys/Ser mutant) [%] | fraction of rat sera blocked by the peptide (anti-β1-ECII antibodies; listed as β1-ECII-18AA Cys/Ser mutated cyclopeptide (D-Glu ring closure)) | fraction of rat sera blocked by the peptide (anti-β1-ECII antibodies; listed as 18AA Ser/Cys-mutants) | fraction of rat sera blocked by the peptide (anti-β1-ECII antibodies; listed as cyclic ECII-18AA Ser/Cys mutants) [%]
1 | 25AA Cys/Cys cyclopeptides: 3 Cys-containing β1-ECII-25AA Cys/Cys cyclopeptide (β1-ECII-CP of WO 2006/103101) (cyclo(ARAESDEARRCYNDPKCCDFVTNRQ); disulfide (positions not given here)) [reference compound] | significant decrease | 67±2 | 73.4±5.0 | 65±2 | 72±5 | 87.7±2 |  |  |  |  |  |  |  | 
2 | cyclo(Ala-Arg-Ala-Glu-Ser-Asp-Glu-Ala-Arg-Arg-Cys-Tyr-Asn-Asp-Pro-Lys-Ser-Cys-Asp-Phe-Val-Thr-Asn-Arg-Gln) (cyclo(ARAESDEARRCYNDPKSCDFVTNRQ); disulfide 11-18 (inferred)) [25AA Ser/Cys] |  | 6±2 |  | 6±2 | 37±7 |  | almost no inhibitory effect |  |  |  |  |  |  | 
3 | cyclo(Ala-Asp-Glu-Ala-Arg-Arg-Cys-Tyr-Asn-Asp-Pro-Lys-Cys-Ser-Asp-Phe-Val-DGlu) (cyclo(ADEARRCYNDPKCSDFV[dE]); disulfide 7-13 (inferred)) |  | 69±2 |  | 69±2 | 47±5 |  | largely superior to its Ser/Cys counterpart, and even slightly more effective than a 3 Cys-containing 25AA Cys/Cys cyclopeptide | comparable or (in more than half of the sera analyzed n=8/12) was even more effective | able to significantly block | consistently largely superior | > 95 | About 95% |  | 
4 | cyclo(Ala-Asp-Glu-Ala-Arg-Arg-Cys-Tyr-Asn-Asp-Pro-Lys-Ser-Cys-Asp-Phe-Val-DGlu) (cyclo(ADEARRCYNDPKSCDFV[dE]); disulfide 7-14 (inferred)) [18AA Ser/Cys with D-Glu-closure] |  | 1±2 |  | 1±2 | 33±5 |  | almost no inhibitory effect |  | not |  |  |  | about 5% | < 5

From US9062095B2, “Mutant double cyclized receptor peptides inhibiting β1-adrenoceptor antibodies” (JULIUS-MAXIMILIANS-UNIVERSTITAT-WURZBURG, priority 2007, dated 2015)
